Laboratory results published in patent US20160166679A1, “METHOD OF TREATMENT USING FOLATE CONJUGATES AND TYROSINE KINASE INHIBITORS” (Purdue Research Foundation, priority 2014, published 2016).

Assays:
L1210A tumors = experiment: Tyrosine kinase inhibitor/folate-FITC combination therapy in L1210A tumor-bearing mice; assay type: in vivo, mouse (DBA/2); conditions: for tumor volume plot: position of the line at the longest duration (PBS control topmost): FIG. 16; for tumor volume plot: position of the line at the longest duration (PBS control second line from the bottom): FIG. 4
Procedure: The effect of the combination therapy strategy of Example 1 was evaluated on an alternative tumor type. The […] lymphocytic leukemia cell line was selected due to its high FR expression levels and its ability to grow in immune competent mice. Female DBA/2 mice (purchased from Harlan Laboratories in Indianapolis, Ind.) were used in this model. Mice were injected subcutaneously with 1×10^6 cells suspended in PBS on the left flank. […] Doses of 500 nmols/Kg of folate-FITC in phosphate buffered saline (PBS) by intraperitoneal injection were used in the folate-FITC alone treatment and the combination treatment.
All treatment groups were terminated when tumors in the PBS control group reached 1500 mm^3 and tumors and spleens were harvested for analysis. The excised tumors were digested using a collagenase cocktail and single cell suspensions were stained for the presence of FR, macrophages, MDSC, and T cells and analyzed by flow cytometry. The intra-tumoral vasculature content in mice treated with PBS, folate-FITC alone, sunitinib alone, or a combination of folate-FITC and sunitinib was imaged, as shown in FIG. 6. […] Portions of each tumor were also cryopreserved for sectioning and immunohistochemistry staining. Harvested spleens were also processed into single cell suspensions and analyzed for immune cell content. The percentage of CD4+ and CD8+ cytotoxic T cell in spleens of L1210A tumor-bearing mice treated with PBS, folate-FITC alone, sunitinib alone, or a combination of folate-FITC and sunitinib was determined, as shown in FIG. 5.
A second RTK inhibitor, axitinib, was studied in combination with folate-FITC on one of the tumor models. The combination therapy was tested in the L1210A lymphoma model following the experimental methods detailed in Example 2, using an axitinib concentration of 15 mg/Kg administered daily by oral gavage in place of sunitinib. The groups of mice were treated with PBS, folate-FITC alone (500 nmols/Kg of folate-FITC in phosphate buffered saline), axitinib alone, or a combination of folate-FITC and axitinib. Average weights of tumors and spleens of L1210A tumor-bearing mice are shown in FIGS. 17 and 18, respectively.

Renca tumors = experiment: Sunitinib/folate-FITC combination therapy in Renca tumor-bearing mice; assay type: in vivo, mouse (Balb/c); conditions: FIG. 2
Procedure: In order to test the effect of combining Sunitinib with folate-targeted immunotherapy on tumor regression in a clinically representative model, the combination therapy was evaluated in Renca tumors, a mouse syngeneic kidney cancer cell line. Renca cells were maintained in a folate deficient cell culture medium and were selected for high folate receptor (FR) expression via multiple steps of cell sorting before being used in therapeutic studies. […] In turn, folate-FITC was used as a folate-hapten conjugate in the therapeutic studies. Female Balb/c mice aged 5-6 weeks were purchased from Harlan Laboratories in Indianapolis, Ind. After allowing one week for the mice to acclimate to their environment, they were vaccinated with 35 ug KLH-FITC in 50 ug GPI-0100 as adjuvant. […]
Several days before the third immunization, each mouse was injected subcutaneously on the left flank with 1×10^6 Renca cells in serum free medium. […] Treatment was initiated when tumors measured 50 mm^3. […] Tumor sizes were measured using digital calipers on alternating days, and tumor volumes were calculated using the equation ½ (L×W^2).
Once it was determined that a study needed to be suspended due to tumor size, all animals in the treatment groups were euthanized within 1-2 days and their tumors and spleens harvested for freezing and analysis by flow cytometry. […]

M109 tumors = experiment: Sunitinib/folate-FITC combination therapy in the M109 lung cancer model; assay type: in vivo, mouse (Balb/c); conditions: M109 tumor-bearing mice; FIG. 11
Procedure: Solid M109 lung tumors were established on the shoulders of KLH-FITC immunized Balb/c mice (5-6 weeks old from Harlan Laboratories, Indianapolis, Ind.) by injecting them subcutaneously with 1×10^6 of syngeneic M109 cells suspended in media containing 1% female Balb/c serum. The mice were treated according to the same dosing schedule described in Examples 1 and 2. The groups of mice were treated with PBS, folate-FITC alone (500 nmols/Kg of folate-FITC in phosphate buffered saline), sunitinib alone, or a combination of folate-FITC (500 nmols/Kg of folate-FITC in phosphate buffered saline) and sunitinib. Following completion of the study and termination of treatment, the treated animals were sacrificed and tumors and spleens were harvested for analysis as described in Example 2.

Compound: CNC(=O)c1ccccc1Sc1ccc2c(/C=C/c3ccccn3)n[nH]c2c1 [axitinib]
- tumor volume plot: position of the line at the longest duration (PBS control topmost) (L1210A tumors; axitinib study): second line from the bottom
- average weights of spleens (L1210A tumors; axitinib study, FIG. 18): swelling of the spleens

Compound: Nc1nc2ncc(CNc3ccc(C(=O)NC(CCC(=O)NCCNC(=S)Nc4ccc(-c5c6ccc(=O)cc-6oc6cc(O)ccc56)c(C(=O)O)c4)C(=O)O)cc3)nc2c(=O)[nH]1 (stereo not drawn) [folate-FITC]
- tumor volume plot: position of the line at the longest duration (PBS control topmost) (Renca tumors): second topmost line
- tumor volume plot: position of the line at the longest duration (PBS control topmost) (L1210A tumors; axitinib study): second topmost line
- average weights of spleens (L1210A tumors; axitinib study, FIG. 18): swelling of the spleens
- tumor volume plot: position of the line at the longest duration (PBS control second line from the bottom) (L1210A tumors; sunitinib study): topmost line
- average weights of spleens (L1210A tumors; sunitinib study, FIG. 9): swelling of the spleens
- tumor volume plot: position of the line at the longest duration (PBS control topmost) (M109 tumors): second line from the bottom

Compound: CCN(CC)CCNC(=O)c1c(C)[nH]c(/C=C2\C(=O)Nc3ccc(F)cc32)c1C [sunitinib]
- tumor volume plot: position of the line at the longest duration (PBS control topmost) (Renca tumors): second line from the bottom
- tumor volume plot: position of the line at the longest duration (PBS control second line from the bottom) (L1210A tumors; sunitinib study): second topmost line
- average weights of spleens (L1210A tumors; sunitinib study, FIG. 9): swelling of the spleens
- tumor volume plot: position of the line at the longest duration (PBS control topmost) (M109 tumors): second topmost line
